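Five compound concentrations were applied to cells in 96-well plates for 48 hours; endpoints were derived by simple linear interpolation of the resulting dose-response curve. At the GI50, growth is halved. TGI: total growth inhibition.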

In one test the test system is NCI-H226 lung. Nature of the test: NCI anticancer screen, dose series, 48 h.
As for `CCn1c(=O)c2c(=O)c3c4c(oc3oc2c2ccccc21)C(=O)c1ccccc1C4=O`, the GI50 was more than 100 µM and the TGI was more than 100 µM.
Take `NC(=O)c1cc(S(=O)(=O)Nc2nnc(-c3ccccc3)c(-c3ccccc3)n2)c(SCc2ccccc2)cc1Cl`: the GI50 is more than 46.9 µM and the TGI was more than 69.4 µM.
As to `Cc1cc(C)c(/C=C2\C(=O)Nc3ccc(NC(=O)CCCCCCC(=O)NO)cc32)[nH]1`, the GI50 was more than 100 µM and the TGI is more than 100 µM.
In the case of `C1=C\COCc2cc(ccc2OCCN2CCCC2)Nc2nccc(n2)-c2cccc(c2)COC/1`, the GI50 is 3.19 µM and the TGI came to 5.09 µM.
Take `CC(C)(S)C(N)C(=O)O` (stereo not drawn): the GI50 was more than 5000 µM and the TGI was more than 5000 µM.
Take `Cc1nc(-[n+]2nc(-c3ccncc3)nn2-c2ccccc2)sc1C`: the TGI was determined as 95.9 µM.
Regarding `COc1cc2c3c(n(CCCOC(=O)C(F)(F)F)c(=O)c2cc1OC)-c1cc2c(cc1C3=O)OCO2`, the GI50 is less than 0.0151 µM and the TGI was determined as 0.161 µM.
In the same order, the values of `CCOC(=O)/C=C(/C)Sc1cc(O)c2ccccc2c1O` are 14.5 µM and 32.8 µM.
On to `N=C(N)c1ccc2nc(-c3cc(CC(=O)N[C@@H](CC(=O)O)C(=O)O)cc(-c4cc(S(N)(=O)=O)ccc4O)c3O)[nH]c2c1`, for which the GI50 is more than 100 µM and the TGI is more than 100 µM.
As for `COc1ccc(O)c(C(=O)c2ccc(C(=O)N[C@H]3CCCNC[C@@H]3NC(=O)c3ccncc3)cc2)c1F`, the GI50 is more than 25 µM and the TGI was more than 25 µM.
With `COc1ccc(-n2c(C)cc(-c3ccccc3)c2C)cc1`, the GI50 is 5.75 µM and the TGI turned out to be 31.2 µM.
In the same order, the values of `O[C@H](c1cc(C(F)(F)F)nc2c(C(F)(F)F)cccc12)[C@@H]1CCCCN1` are 6.72 µM and 22.6 µM.
Take `COc1cc(C(=O)N2CCN(c3ncccn3)CC2)c(N)cc1OCc1ccccc1`: the GI50 was more than 100 µM and the TGI is more than 100 µM.
Take `N#CC1=C(N)Oc2cc(O)ccc2C1c1cccc2ccccc12` (stereo not drawn): the GI50 is 24.2 µM and the TGI turned out to be 82.3 µM.

The subject of another test is SF-268 CNS. Nature of the test: NCI anticancer screen, dose series, 48 h.
For `CCn1c(=O)c2c(=O)c3c4c(oc3oc2c2ccccc21)C(=O)c1ccccc1C4=O`, the GI50 was more than 71 µM and the TGI was more than 100 µM.
With `NC(=O)c1cc(S(=O)(=O)Nc2nnc(-c3ccccc3)c(-c3ccccc3)n2)c(SCc2ccccc2)cc1Cl`, the GI50 is more than 87.5 µM and the TGI is more than 100 µM.
Consider `Cc1cc(C)c(/C=C2\C(=O)Nc3ccc(NC(=O)CCCCCCC(=O)NO)cc32)[nH]1`, for which the GI50 is 1.62 µM and the TGI was more than 100 µM.
Take `C1=C\COCc2cc(ccc2OCCN2CCCC2)Nc2nccc(n2)-c2cccc(c2)COC/1`: the GI50 is 2.03 µM and the TGI was 5.77 µM.
On the same counts, the results for `CC(C)(S)C(N)C(=O)O` (stereo not drawn) are 1740 µM and more than 5000 µM.
As for `Cc1nc(-[n+]2nc(-c3ccncc3)nn2-c2ccccc2)sc1C`, the TGI was more than 100 µM.
In the case of `COc1cc2c3c(n(CCCOC(=O)C(F)(F)F)c(=O)c2cc1OC)-c1cc2c(cc1C3=O)OCO2`, the TGI was more than 32.2 µM.
On to `CCOC(=O)/C=C(/C)Sc1cc(O)c2ccccc2c1O`, for which the GI50 was 4.24 µM and the TGI came out at 14.6 µM.
On the same counts, the results for `N=C(N)c1ccc2nc(-c3cc(CC(=O)N[C@@H](CC(=O)O)C(=O)O)cc(-c4cc(S(N)(=O)=O)ccc4O)c3O)[nH]c2c1` are more than 100 µM and more than 100 µM.
For the compound `COc1ccc(O)c(C(=O)c2ccc(C(=O)N[C@H]3CCCNC[C@@H]3NC(=O)c3ccncc3)cc2)c1F`, the GI50 is 1.75 µM and the TGI is more than 20.6 µM.
Consider `COc1ccc(-n2c(C)cc(-c3ccccc3)c2C)cc1`, for which the GI50 was 4.46 µM and the TGI amounted to 33.3 µM.
Regarding `O[C@H](c1cc(C(F)(F)F)nc2c(C(F)(F)F)cccc12)[C@@H]1CCCCN1`, the GI50 is 3.54 µM and the TGI is 15 µM.
Take `COc1cc(C(=O)N2CCN(c3ncccn3)CC2)c(N)cc1OCc1ccccc1`: the GI50 was more than 100 µM and the TGI was more than 100 µM.
Take `O=C1NC(=O)C(c2cccc([N+](=O)[O-])c2)=C1Nc1cc(Cl)c(O)c(Cl)c1`: the GI50 is more than 25 µM and the TGI was more than 25 µM.
Turning to `c1ccc2c(c1)c1c(c3ccccc32)CN2CCCC2C1` (stereo not drawn), the TGI came out at 13.2 µM.
With `N#CC1=C(N)Oc2cc(O)ccc2C1c1cccc2ccccc12` (stereo not drawn), the GI50 is 14.5 µM and the TGI worked out at 40.4 µM.

A further test has as its system M14 melanoma. Nature of the test: NCI anticancer screen, dose series, 48 h.
Take `CCn1c(=O)c2c(=O)c3c4c(oc3oc2c2ccccc21)C(=O)c1ccccc1C4=O`: the GI50 is more than 100 µM and the TGI is more than 100 µM.
In the case of `NC(=O)c1cc(S(=O)(=O)Nc2nnc(-c3ccccc3)c(-c3ccccc3)n2)c(SCc2ccccc2)cc1Cl`, the GI50 is more than 100 µM and the TGI was more than 100 µM.
Consider `Cc1cc(C)c(/C=C2\C(=O)Nc3ccc(NC(=O)CCCCCCC(=O)NO)cc32)[nH]1`, for which the GI50 was 0.75 µM and the TGI is more than 100 µM.
In the same order, the values of `C1=C\COCc2cc(ccc2OCCN2CCCC2)Nc2nccc(n2)-c2cccc(c2)COC/1` are 1.75 µM and 4.72 µM.
As for `CC(C)(S)C(N)C(=O)O` (stereo not drawn), the GI50 was 4370 µM and the TGI was more than 5000 µM.
`Cc1nc(-[n+]2nc(-c3ccncc3)nn2-c2ccccc2)sc1C` showed a TGI of more than 100 µM.
Take `COc1cc2c3c(n(CCCOC(=O)C(F)(F)F)c(=O)c2cc1OC)-c1cc2c(cc1C3=O)OCO2`: the GI50 was less than 0.0123 µM.
Take `CCOC(=O)/C=C(/C)Sc1cc(O)c2ccccc2c1O`: the GI50 is 1.76 µM and the TGI is 3.48 µM.
Consider `N=C(N)c1ccc2nc(-c3cc(CC(=O)N[C@@H](CC(=O)O)C(=O)O)cc(-c4cc(S(N)(=O)=O)ccc4O)c3O)[nH]c2c1`, for which the GI50 was more than 100 µM and the TGI was more than 100 µM.
Take `COc1ccc(O)c(C(=O)c2ccc(C(=O)N[C@H]3CCCNC[C@@H]3NC(=O)c3ccncc3)cc2)c1F`: the GI50 was 6.43 µM and the TGI was more than 22.4 µM.
Regarding `COc1ccc(-n2c(C)cc(-c3ccccc3)c2C)cc1`, the GI50 was 2.59 µM and the TGI came to 9.14 µM.
On the same counts, the results for `O[C@H](c1cc(C(F)(F)F)nc2c(C(F)(F)F)cccc12)[C@@H]1CCCCN1` are 2.53 µM and 6.69 µM.
On the same counts, the results for `COc1cc(C(=O)N2CCN(c3ncccn3)CC2)c(N)cc1OCc1ccccc1` are more than 100 µM and more than 100 µM.
Turning to `O=C1NC(=O)C(c2cccc([N+](=O)[O-])c2)=C1Nc1cc(Cl)c(O)c(Cl)c1`, the GI50 was more than 25 µM and the TGI is more than 25 µM.
Turning to `c1ccc2c(c1)c1c(c3ccccc32)CN2CCCC2C1` (stereo not drawn), the TGI turned out to be 15.8 µM.
As for `N#CC1=C(N)Oc2cc(O)ccc2C1c1cccc2ccccc12` (stereo not drawn), the GI50 was 5.72 µM and the TGI stood at 21.6 µM.

The test system of a further test is TK-10 renal. Nature of the test: NCI anticancer screen, dose series, 48 h.
With `CCn1c(=O)c2c(=O)c3c4c(oc3oc2c2ccccc21)C(=O)c1ccccc1C4=O`, the GI50 is more than 71.5 µM and the TGI is more than 100 µM.
Regarding `NC(=O)c1cc(S(=O)(=O)Nc2nnc(-c3ccccc3)c(-c3ccccc3)n2)c(SCc2ccccc2)cc1Cl`, the GI50 is more than 100 µM and the TGI is more than 100 µM.
Turning to `Cc1cc(C)c(/C=C2\C(=O)Nc3ccc(NC(=O)CCCCCCC(=O)NO)cc32)[nH]1`, the GI50 was 3.1 µM and the TGI is more than 100 µM.
`C1=C\COCc2cc(ccc2OCCN2CCCC2)Nc2nccc(n2)-c2cccc(c2)COC/1`: the GI50 is 3.33 µM and the TGI was found to be 5.79 µM.
As to `CC(C)(S)C(N)C(=O)O` (stereo not drawn), the GI50 is 2610 µM and the TGI was more than 5000 µM.
With `Cc1nc(-[n+]2nc(-c3ccncc3)nn2-c2ccccc2)sc1C`, the TGI stood at 99.1 µM.
Regarding `COc1cc2c3c(n(CCCOC(=O)C(F)(F)F)c(=O)c2cc1OC)-c1cc2c(cc1C3=O)OCO2`, the GI50 is 0.135 µM and the TGI was more than 100 µM.
Regarding `CCOC(=O)/C=C(/C)Sc1cc(O)c2ccccc2c1O`, the GI50 was 8.29 µM and the TGI came to 17.9 µM.
Regarding `N=C(N)c1ccc2nc(-c3cc(CC(=O)N[C@@H](CC(=O)O)C(=O)O)cc(-c4cc(S(N)(=O)=O)ccc4O)c3O)[nH]c2c1`, the GI50 is more than 100 µM and the TGI was more than 100 µM.
On to `COc1ccc(O)c(C(=O)c2ccc(C(=O)N[C@H]3CCCNC[C@@H]3NC(=O)c3ccncc3)cc2)c1F`, for which the GI50 was 0.684 µM and the TGI is more than 25 µM.
With `COc1ccc(-n2c(C)cc(-c3ccccc3)c2C)cc1`, the GI50 was 3.28 µM and the TGI came to 16.5 µM.
Consider `O[C@H](c1cc(C(F)(F)F)nc2c(C(F)(F)F)cccc12)[C@@H]1CCCCN1`, for which the GI50 was 2.85 µM and the TGI came out at 10.4 µM.
With `COc1cc(C(=O)N2CCN(c3ncccn3)CC2)c(N)cc1OCc1ccccc1`, the GI50 is more than 100 µM and the TGI is more than 100 µM.
With `O=C1NC(=O)C(c2cccc([N+](=O)[O-])c2)=C1Nc1cc(Cl)c(O)c(Cl)c1`, the GI50 was more than 17.7 µM and the TGI is more than 25 µM.
For the compound `c1ccc2c(c1)c1c(c3ccccc32)CN2CCCC2C1` (stereo not drawn), the TGI is more than 90.8 µM.
Turning to `N#CC1=C(N)Oc2cc(O)ccc2C1c1cccc2ccccc12` (stereo not drawn), the GI50 was 15.6 µM and the TGI was 45.6 µM.

For another test, the system named is A549 NSCLC. Nature of the test: NCI anticancer screen, dose series, 48 h.
As for `CCn1c(=O)c2c(=O)c3c4c(oc3oc2c2ccccc21)C(=O)c1ccccc1C4=O`, the GI50 is more than 100 µM and the TGI is more than 100 µM.
Take `NC(=O)c1cc(S(=O)(=O)Nc2nnc(-c3ccccc3)c(-c3ccccc3)n2)c(SCc2ccccc2)cc1Cl`: the GI50 is more than 100 µM and the TGI is more than 100 µM.
For the compound `Cc1cc(C)c(/C=C2\C(=O)Nc3ccc(NC(=O)CCCCCCC(=O)NO)cc32)[nH]1`, the GI50 was more than 100 µM and the TGI was more than 100 µM.
Turning to `C1=C\COCc2cc(ccc2OCCN2CCCC2)Nc2nccc(n2)-c2cccc(c2)COC/1`, the GI50 was 2.03 µM and the TGI came out at 5.72 µM.
`CC(C)(S)C(N)C(=O)O` (stereo not drawn): the GI50 was 1780 µM and the TGI is more than 5000 µM.
As for `Cc1nc(-[n+]2nc(-c3ccncc3)nn2-c2ccccc2)sc1C`, the TGI was more than 100 µM.
As for `CCOC(=O)/C=C(/C)Sc1cc(O)c2ccccc2c1O`, the GI50 is 2.5 µM and the TGI is 5.99 µM.
On the same counts, the results for `N=C(N)c1ccc2nc(-c3cc(CC(=O)N[C@@H](CC(=O)O)C(=O)O)cc(-c4cc(S(N)(=O)=O)ccc4O)c3O)[nH]c2c1` are more than 100 µM and more than 100 µM.
Turning to `COc1ccc(O)c(C(=O)c2ccc(C(=O)N[C@H]3CCCNC[C@@H]3NC(=O)c3ccncc3)cc2)c1F`, the GI50 was 16.3 µM and the TGI was more than 25 µM.
Take `COc1ccc(-n2c(C)cc(-c3ccccc3)c2C)cc1`: the GI50 was 2.88 µM and the TGI stood at 38.7 µM.
On to `O[C@H](c1cc(C(F)(F)F)nc2c(C(F)(F)F)cccc12)[C@@H]1CCCCN1`, for which the GI50 was 5.25 µM and the TGI was determined as 16.3 µM.
As for `COc1cc(C(=O)N2CCN(c3ncccn3)CC2)c(N)cc1OCc1ccccc1`, the GI50 is more than 100 µM and the TGI was more than 100 µM.
In the case of `O=C1NC(=O)C(c2cccc([N+](=O)[O-])c2)=C1Nc1cc(Cl)c(O)c(Cl)c1`, the GI50 was more than 25 µM and the TGI is more than 25 µM.
`c1ccc2c(c1)c1c(c3ccccc32)CN2CCCC2C1` (stereo not drawn) registered a TGI of 17.9 µM.
`N#CC1=C(N)Oc2cc(O)ccc2C1c1cccc2ccccc12` (stereo not drawn): the GI50 is 7.02 µM and the TGI was more than 100 µM.
